ChEMBL document CHEMBL3792317, “Novel tetrazoloquinoline-rhodanine conjugates: Highly efficient synthesis and biological evaluation” (Bioorg Med Chem Lett, 2016)
In brackets after ≈: the same amount, converted by molar mass.

Columns and labels:
Fusarium oxysporum = assay: Antifungal activity against Fusarium oxysporum NCIM 1332 after 48 hrs by agar cup plate method; format: functional; conditions: NCIM 1332, 48 h
Candida albicans = assay: Antifungal activity against Candida albicans NCIM 3471 after 48 hrs by agar cup plate method; format: functional; conditions: NCIM 3471, 48 h
Aspergillus niger = assay: Antifungal activity against Aspergillus niger NCIM 1196 after 48 hrs by agar cup plate method; format: functional; conditions: NCIM 1196, 48 h
[1] = system: Mycobacterium bovis BCG str. ATCC 35743; assay: Antitubercular activity against dormant Mycobacterium bovis BCG ATCC 35743 at 10 ug/ml incubated for 40 mins by XTT Reduction Menadione Assay; format: functional
[2] = system: Mycobacterium tuberculosis; assay: Antitubercular activity against Mycobacterium tuberculosis H37Ra ATCC 25177 at 10 ug/ml incubated for 40 mins by XTT Reduction Menadione Assay; format: functional; conditions: H37Ra ATCC 25177, 40 min, read-out: GI
[3] = system: Mycobacterium tuberculosis; assay: Antitubercular activity against Mycobacterium tuberculosis H37Ra ATCC 25177 incubated for 40 mins by XTT Reduction Menadione Assay; format: functional; conditions: H37Ra ATCC 25177, 40 min
[4] = system: Mycobacterium tuberculosis; assay: Antitubercular activity against Mycobacterium tuberculosis H37Ra ATCC 25177 at 3 ug/ml incubated for 40 mins by XTT Reduction Menadione Assay; format: functional; conditions: H37Ra ATCC 25177, 40 min, read-out: GI
Cryptococcus neoformans = assay: Antifungal activity against Cryptococcus neoformans NCIM 576 after 48 hrs by agar cup plate method; format: functional; conditions: NCIM 576, 48 h
[5] = system: Mycobacterium tuberculosis; assay: Antitubercular activity against Mycobacterium tuberculosis H37Ra ATCC 25177 at 30 ug/ml incubated for 40 mins by XTT Reduction Menadione Assay; format: functional; conditions: H37Ra ATCC 25177, 40 min, read-out: GI
[6] = Antitubercular activity against Mycobacterium bovis BCG ATCC 35743 incubated for 40 mins by XTT Reduction Menadione Assay; format: functional, Mycobacterium bovis BCG str. ATCC 35743; conditions: Mycobacterium tuberculosis variant bovis BCG, ATCC 35743, 40 min
Aspergillus flavus = assay: Antifungal activity against Aspergillus flavus NCIM 539 after 48 hrs by agar cup plate method; format: functional; conditions: NCIM 539, 48 h
[7] = system: Mycobacterium bovis BCG str. ATCC 35743; assay: Antitubercular activity against dormant Mycobacterium bovis BCG ATCC 35743 at 3 ug/ml incubated for 40 mins by XTT Reduction Menadione Assay; format: functional
[8] = system: Mycobacterium bovis BCG str. ATCC 35743; assay: Antitubercular activity against dormant Mycobacterium bovis BCG ATCC 35743 at 30 ug/ml incubated for 40 mins by XTT Reduction Menadione Assay; format: functional
Escherichia coli = assay: Antibacterial activity against Escherichia coli after 18 hrs by broth dilution method; format: functional
Bacillus subtilis = assay: Antibacterial activity against Bacillus subtilis after 18 hrs by broth dilution method; format: functional
Pseudomonas fluorescens = assay: Antibacterial activity against Pseudomonas fluorescens after 18 hrs by broth dilution method; format: functional
Staphylococcus aureus = assay: Antibacterial activity against Staphylococcus aureus after 18 hrs by broth dilution method; format: functional
[9] = (§1) Cytotoxicity against human HeLa cells after 48 hrs by MTT assay; format: cell-based; conditions: HeLa cells
HeLa = assay: as §1; format: cell-based; conditions: hela, 48 h
[10] = Cytotoxicity against human THP1 cells after 48 hrs by MTT assay; format: cell-based, THP-1; conditions: for GI50 at 48 h: THP1 cells; for GI90: thp-1, 48 h
[11] = Cytotoxicity against human PANC1 cells after 48 hrs by MTT assay; format: cell-based, PANC-1; conditions: for GI50 at 48 h: PANC1 cells; for GI90: panc-1, 48 h
[12] = (§2) Cytotoxicity against human A549 cells after 48 hrs by MTT assay; format: cell-based; conditions: A549 cells
A549 = assay: as §2; format: cell-based; conditions: a549, 48 h
[13] = system: Mycobacterium tuberculosis; assay: Antitubercular activity against active Mycobacterium tuberculosis H37Ra ATCC 25177 incubated for 40 mins by XTT Reduction Menadione Assay; format: functional; conditions: H37Ra ATCC 25177, 40 min
[14] = system: Mycobacterium tuberculosis; assay: Antitubercular activity against dormant Mycobacterium tuberculosis H37Ra ATCC 25177 incubated for 40 mins by XTT Reduction Menadione Assay; format: functional; conditions: H37Ra ATCC 25177, 40 min

| Compound | MIC (Fusarium oxysporum) [µg/mL] | MIC (Candida albicans) [µg/mL] | MIC (Aspergillus niger) [µg/mL] | growth inhibition (GI) [1] [%] | inhibition of growth at 10 µg/mL [2] [%] | MIC [3] [µg/mL] | inhibition of growth at 3 µg/mL [4] [%] | MIC (Cryptococcus neoformans) [µg/mL] | inhibition of growth at 30 µg/mL [5] [%] | MIC [6] [µg/mL] | MIC (Aspergillus flavus) [µg/mL] | growth inhibition (GI) [7] [%] | growth inhibition (GI) [8] [%] | MIC (Escherichia coli) [µg/mL] | MIC (Bacillus subtilis) [µg/mL] | MIC (Pseudomonas fluorescens) [µg/mL] | MIC (Staphylococcus aureus) [µg/mL] | also measured |
| --- | --- | --- | --- | --- | --- | --- | --- | --- | --- | --- | --- | --- | --- | --- | --- | --- | --- | --- |
| Cc1ccc2c(c1)cc(/C=C1\SC(=S)N(CCC(=O)O)C1=O)c1nnnn12 | 75 (≈ 188 µM) | 100 (≈ 250 µM) | 25 (≈ 62.6 µM) | 13.7 | 31.6 | 50.5 (≈ 126 µM) | 1.75 | 50 (≈ 125 µM) | 44.7 | 51.3 (≈ 128 µM) | 75 (≈ 188 µM) | 16.2 | 46.4 |  |  |  |  |  |
| NC[C@H]1O[C@H](O[C@H]2[C@H](O)[C@@H](O[C@H]3O[C@H](CO)[C@@H](O)[C@H](N)[C@H]3O)[C@H](N)C[C@@H]2N)[C@H](O)[C@@H](O)[C@@H]1O [KANAMYCIN] |  |  |  |  |  |  |  |  |  |  |  |  |  | 1.62 (≈ 3.34 µM) | 1.35 (≈ 2.79 µM) | 0.49 (≈ 1.01 µM) | > 30 |  |
| Cc1cccc2cc(/C=C3\SC(=S)NC3=O)c3nnnn3c12 | 100 (≈ 305 µM) | 25 (≈ 76.4 µM) | 25 (≈ 76.4 µM) | 63.3 | 16.7 | 148 (≈ 453 µM) | -9.62 | 75 (≈ 229 µM) | 40.3 | > 250 | 50 (≈ 153 µM) | 64 | 82.4 | 173 (≈ 529 µM) | 88.8 (≈ 271 µM) | 148 (≈ 451 µM) | 127 (≈ 388 µM) | GI50 at 48 h [9]: > 100 µg/mL; GI90 (HeLa): > 100 µg/mL; GI50 at 48 h [10]: > 100 µg/mL; GI90 [10]: > 100 µg/mL; GI50 at 48 h [11]: > 100 µg/mL; GI90 [11]: > 100 µg/mL; GI50 at 48 h [12]: > 100 µg/mL; GI90 (A549): > 100 µg/mL; IC90 [13]: > 250 µg/mL; IC90 [14]: 148 µg/mL (≈ 453 µM) |
| Cc1ccc2c(c1)cc(/C=C1\SC(=S)NC1=O)c1nnnn12 | 25 (≈ 76.4 µM) | 150 (≈ 458 µM) | 25 (≈ 76.4 µM) | -28 | 23.7 | > 250 | 21.9 | 25 (≈ 76.4 µM) | 10.8 | > 250 | 100 (≈ 305 µM) | 8.79 | -32.7 | 167 (≈ 511 µM) | 174 (≈ 532 µM) | 223 (≈ 682 µM) | 159 (≈ 486 µM) | GI50 at 48 h [9]: > 100 µg/mL; GI90 (HeLa): > 100 µg/mL; GI50 at 48 h [10]: 63.3 µg/mL (≈ 193 µM); GI90 [10]: 63.3 µg/mL (≈ 193 µM); GI50 at 48 h [11]: 42 µg/mL (≈ 128 µM); GI90 [11]: > 100 µg/mL; GI50 at 48 h [12]: 89.2 µg/mL (≈ 273 µM); GI90 (A549): 63.3 µg/mL (≈ 193 µM); IC90 [13]: > 250 µg/mL; IC90 [14]: > 250 µg/mL |
| Clc1ccc(COC(Cn2ccnc2)c2ccc(Cl)cc2Cl)c(Cl)c1 (stereo not given) [MICONAZOLE] | 25 (≈ 60.1 µM) | 25 (≈ 60.1 µM) | 25 (≈ 60.1 µM) |  |  |  |  | 25 (≈ 60.1 µM) |  |  | 12.5 (≈ 30 µM) |  |  |  |  |  |  |  |
| O=C(O)CN1C(=O)/C(=C/c2cc3ccccc3n3nnnc23)SC1=S | 50 (≈ 135 µM) | 50 (≈ 135 µM) | 125 (≈ 337 µM) | -28.9 | -2.04 | > 250 | 12.2 | 150 (≈ 404 µM) | 1.49 | > 250 | 125 (≈ 337 µM) | -52.6 | -12.2 | 178 (≈ 480 µM) | 124 (≈ 333 µM) | 182 (≈ 489 µM) | 151 (≈ 408 µM) |  |
| Cc1cccc2cc(/C=C3\SC(=S)N(CC(=O)O)C3=O)c3nnnn3c12 | 50 (≈ 130 µM) | 25 (≈ 64.9 µM) | 100 (≈ 259 µM) | -46.2 | 36.8 | 93.2 (≈ 242 µM) | 44.5 | 125 (≈ 324 µM) | 28.2 | 86 (≈ 223 µM) | 50 (≈ 130 µM) | -41.4 | -58.8 | 149 (≈ 387 µM) | 135 (≈ 351 µM) | 162 (≈ 420 µM) | 106 (≈ 274 µM) |  |
